These results are taken from US20190091272A1, “ANTI-CANCER DRUG COMPOSITION INCLUDING GANODERMA EXTRACT AND AMPHOTERICIN B” (Taiwan Indigena Botanica Co., Ltd., priority 2015, published 2019).

This test concerns human liver carcinoma cell lines including Hep G2, Hep 3G and Hep 5J. The test can be described thus: Summary of Examples 1 and 2 over the three liver carcinoma cell lines. It counts as cell-based. As for the experimental part:
This example used human liver carcinoma cell lines including Hep G2, Hep 3G and Hep 5J for experiments, and the cells were cultured in 96-well plates. The experiments were divided into two groups including a pre-treatment group and a co-treatment group. The cells in the pre-treatment group were pre-treated with the Ganoderma ethanolic extracts for 24 hours and then treated with the amphotericin B for 48 hours, while the cells in the co-treatment group were co-treated with the Ganoderma ethanolic extracts and the amphotericin B together for 48 hours.
In the pre-treatment group, the cells were pre-treated with the Ganoderma ethanolic extracts at concentrations of 0, 1, 2.5 and 5 mg/ml for 24 hours, and then treated with the amphotericin B at concentrations between 0-80 μM for 48 hours, followed by MTT assay. In the co-treatment group, the cells were co-treated with the Ganoderma ethanolic extracts at concentrations of 0, 1, 2.5 and 5 mg/ml and the amphotericin B at concentrations between 0-80 μM for 48 hours, followed by MTT assay. The MTT solution (3-(4,5-Dimethylthiazol-2-yl)-2,5-diphenyltetrazolium bromide) was added to each well, and the plates were further incubated for 45-60 minutes. The cell culture medium was then removed and replaced by DMSO (dimethyl sulfoxide). Subsequently, the optical density (OD) was measured at 550 nm. […]

`C[C@@H]1[C@H](O)[C@@H](C)/C=C/C=C/C=C/C=C/C=C/C=C/C=C/[C@H](O[C@@H]2O[C@H](C)[C@@H](O)[C@H](N)[C@@H]2O)C[C@@H]2O[C@](O)(C[C@@H](O)C[C@@H](O)[C@H](O)CC[C@@H](O)C[C@@H](O)CC(=O)O[C@H]1C)C[C@H](O)[C@H]2C(=O)O` [amphotericin B]: the “effective dose of the amphotericin B” value (after pre-treatment with the Ganoderma ethanolic extract, from the examples) is listed as “at least 3 μM”. Further, the “safe and effective dose of the amphotericin B” value (based on the results from Examples 1 and 2) was in the range of 3 to 10 µM.
